± gives the expanded uncertainty stated by the source.
Legend:
[1] = Molar enthalpy of transition or fusion; settings: Crystal; DSC
[2] = Crystal; DTA

- Molar enthalpy of transition or fusion [1]: 43.1 ± 1 kJ/mol
- Normal melting temperature [2]: 303 ± 0.6 °C
SMILES: CN1C(=O)N[C@H]2NC(=O)N(C)[C@H]21

Reference: the NIST ThermoML archive (doi:10.1016/j.tca.2016.01.003)
